Test results taken from ChEMBL document CHEMBL5512637, “Development of Membrane-Targeting Fluorescent 2-Phenyl-1H-phenanthro[9,10-d]imidazole-Antimicrobial Peptide Mimic Conjugates against Methicillin-Resistant Staphylococcus aureus” (J Med Chem, 2024).

Assays:
[1] = Selectivity index, ratio of HC50 for sheep erythrocytes to MIC for Staphylococcus aureus ATCC 29213; assay type: toxicity; conditions: read-out: Selectivity Index
[2] = test system: Staphylococcus aureus; experiment: Antibacterial activity against methicillin-resistant Staphylococcus aureus clinical isolate M-5 incubated for 16 to 18 hrs CLSI based by microbroth dilution assay; assay type: functional; conditions: time 16-18 hrs
[3] = Hemolytic activity in sheep erythrocytes incubated for 1 hr by absorbance based assay; assay type: toxicity, cell-based, Ovis aries, Erythrocyte
[4] = test system: Staphylococcus aureus; experiment: Antibacterial activity against methicillin-resistant Staphylococcus aureus clinical isolate M-3 incubated for 16 to 18 hrs CLSI based by microbroth dilution assay; assay type: functional; conditions: time 16-18 hrs
[5] = test system: Staphylococcus aureus; experiment: Antibacterial activity against methicillin-resistant Staphylococcus aureus clinical isolate M-4 incubated for 16 to 18 hrs CLSI based by microbroth dilution assay; assay type: functional; conditions: time 16-18 hrs
[6] = test system: Staphylococcus aureus; experiment: Antibacterial activity against methicillin-resistant Staphylococcus aureus clinical isolate M-1 incubated for 16 to 18 hrs CLSI based by microbroth dilution assay; assay type: functional; conditions: time 16-18 hrs
[7] = test system: Staphylococcus aureus; experiment: Antibacterial activity against methicillin-resistant Staphylococcus aureus clinical isolate M-6 incubated for 16 to 18 hrs CLSI based by microbroth dilution assay; assay type: functional; conditions: time 16-18 hrs
[8] = test system: Staphylococcus aureus; experiment: Antibacterial activity against Staphylococcus aureus ATCC 29213 incubated for 16 to 18 hrs CLSI based by microbroth dilution assay; assay type: functional; conditions: time 16-18 hrs
[9] = test system: Staphylococcus aureus; experiment: Antibacterial activity against methicillin-resistant Staphylococcus aureus clinical isolate M-9 incubated for 16 to 18 hrs CLSI based by microbroth dilution assay; assay type: functional; conditions: time 16-18 hrs
[10] = test system: Staphylococcus aureus; experiment: Antibacterial activity against methicillin-resistant Staphylococcus aureus clinical isolate M-7 incubated for 16 to 18 hrs CLSI based by microbroth dilution assay; assay type: functional; conditions: time 16-18 hrs
[11] = test system: Staphylococcus aureus; experiment: Antibacterial activity against methicillin-resistant Staphylococcus aureus clinical isolate M-8 incubated for 16 to 18 hrs CLSI based by microbroth dilution assay; assay type: functional; conditions: time 16-18 hrs
[12] = test system: Escherichia coli; experiment: Antibacterial activity against Escherichia coli ATCC 25922 incubated for 16 to 18 hrs CLSI based by microbroth dilution assay; assay type: functional; conditions: time 16-18 hrs
[13] = test system: Staphylococcus aureus; experiment: Antibacterial activity against methicillin-resistant Staphylococcus aureus clinical isolate M-2 incubated for 16 to 18 hrs CLSI based by microbroth dilution assay; assay type: functional; conditions: time 16-18 hrs
[14] = test system: Staphylococcus aureus; experiment: Antibacterial activity against methicillin-resistant Staphylococcus aureus clinical isolate M-10 incubated for 16 to 18 hrs CLSI based by microbroth dilution assay; assay type: functional; conditions: time 16-18 hrs

Row | SMILES | selectivity ratio [1] | MIC [2] | HC50 at 1 h [3] | MIC [4] | MIC [5] | MIC [6] | MIC [7] | MIC [8] | MIC [9] | MIC [10] | MIC [11] | MIC [12] | MIC [13] | MIC [14]
1 | CC(C)CN(CC(C)C)C(=O)C[N+](C)(C)CCCn1c(-c2ccc(N(C)C)cc2)nc2c3ccccc3c3ccccc3c21.[Br-] | 40 | 8 µg/mL | > 320 µg/mL | 16 µg/mL | 4 µg/mL | 8 µg/mL | 16 µg/mL | 8 µg/mL | 8 µg/mL | 32 µg/mL | 16 µg/mL | 128 µg/mL | 16 µg/mL | 8 µg/mL
2 | CCCN(CCC)C(=O)C[N+](C)(C)CCCn1c(-c2ccc(N(C)C)cc2)nc2c3ccccc3c3ccccc3c21.[Br-] | > 20 | 32 µg/mL | > 640 µg/mL | 32 µg/mL | 32 µg/mL | 32 µg/mL | 64 µg/mL | 32 µg/mL | 32 µg/mL | 16 µg/mL | 64 µg/mL | > 128 µg/mL | 32 µg/mL | 32 µg/mL
3 | CCNC(=O)C[N+](C)(C)CCCn1c(-c2ccc(N(C)C)cc2)nc2c3ccccc3c3ccccc3c21.[Br-] | > 10 | 64 µg/mL | > 640 µg/mL | 64 µg/mL | 32 µg/mL | 64 µg/mL | 64 µg/mL | 64 µg/mL | 64 µg/mL | 32 µg/mL | 64 µg/mL | > 128 µg/mL | 64 µg/mL | 64 µg/mL
4 | CCCCN(CCCC)C(=O)C[N+](C)(C)CCCCn1c(-c2ccc(N(C)C)cc2)nc2c3ccccc3c3ccccc3c21.[Br-] | 79.5 | 2 µg/mL | 79.5 µg/mL | 0.5 µg/mL | 1 µg/mL | 2 µg/mL | 0.5 µg/mL | 1 µg/mL | 1 µg/mL | 0.5 µg/mL | 1 µg/mL | 64 µg/mL | 1 µg/mL | 1 µg/mL
5 | CC(C)N(C(=O)C[N+](C)(C)CCCn1c(-c2ccc(N(C)C)cc2)nc2c3ccccc3c3ccccc3c21)C(C)C.[Br-] | 8.6 | 2 µg/mL | 68.5 µg/mL | 2 µg/mL | 2 µg/mL | 2 µg/mL | 2 µg/mL | 2 µg/mL | 2 µg/mL | 2 µg/mL | 4 µg/mL | > 128 µg/mL | 2 µg/mL | 2 µg/mL
6 | CN(C)c1ccc(-c2nc3c4ccccc4c4ccccc4c3n2CCCC[N+](C)(C)CC(=O)N2CCSCC2)cc1.[Br-] | > 40 | 16 µg/mL | > 640 µg/mL | 16 µg/mL | 16 µg/mL | 16 µg/mL | 16 µg/mL | 16 µg/mL | 16 µg/mL | 16 µg/mL | 16 µg/mL | > 128 µg/mL | 16 µg/mL | 16 µg/mL
7 | CCCN(CCC)C(=O)C[N+](C)(C)CCCCn1c(-c2ccc(N(C)C)cc2)nc2c3ccccc3c3ccccc3c21.[Br-] | 53.3 | 4 µg/mL | 213 µg/mL | 4 µg/mL | 4 µg/mL | 4 µg/mL | 4 µg/mL | 4 µg/mL | 4 µg/mL | 4 µg/mL | 4 µg/mL | 128 µg/mL | 4 µg/mL | 4 µg/mL
8 | CC(C)N(C(=O)C[N+](C)(C)CCCCn1c(-c2ccc(N(C)C)cc2)nc2c3ccccc3c3ccccc3c21)C(C)C.[Br-] | > 80 | 8 µg/mL | > 640 µg/mL | 8 µg/mL | 8 µg/mL | 8 µg/mL | 8 µg/mL | 8 µg/mL | 8 µg/mL | 8 µg/mL | 8 µg/mL | > 128 µg/mL | 8 µg/mL | 8 µg/mL
